Experimental data as given in US20150141375A1 (priority 2009, published 2015).
Where two headings read alike, the source gives them in different places.

Key:
[1] = system: Variola major; test: organism not typed; type: cell-based
[2] = system: EBV; test: Patients with EBV-associated PTLD treated with CMX001; type: in vivo, human
Source text: The first patient is a patient with a history of sickle cell anemia developed EBV-associated intracranial post-transplant lymphoproliferative disorder (PTLD). EBV was positive in the plasma (7 Dec. and 14 Dec. 2010) and brain biopsies were consistent with PTLD. In early December, the patient presented with a 3 day history of persistent headache, nausea, vomiting, and diarrhea. […] The patient was admitted to PICU. High intracranial pressure, repetitive seizures associated with apnea led to intubtion and emergency request for CMX001. The use of CMX001 in this patient with EBV-associated PTLD is ongoing since 26 Dec. 2009.
The second patient was a heart transplant recipient with EBV-associated PTLD. The patient acquired a primary EBV infection post-operatively. […] The clinical condition continued to destabilize with what was presumed to be EBV-associated encephalitis with EBV detected in the CSF, clinical and EEG-correlated seizure activity and decreased responsiveness and changes in mental status. At the time of request for CMX001, the patient was on mechanical ventilation, had evidence of both pneumonia and PTLD of their lungs, evidence of seizure activity with clinical criteria for encephalopathy being present. The patient received their first dose of CMX001, 20 mg (approximately 3.3 mg/kg) on 3 Mar. 2010, and their second dose on 7 Mar. […] The patient continued to show evidence of progressive neurologic injury. The parents withdrew support on the day following their second dose of CMX001.

[3] = Safety and pharmacokinetics of CMX001 in healthy volunteers; type: in vivo, human; details: for AUC / Cmax: blood, Human, analyte = label
Method: An initial study was conducted to evaluate the safety and pharmacokinetics of CMX001 in healthy volunteers. The study consisted of a single dose arm (SD) and a multiple dose arm (MD). In the single dose arm 7 cohorts of 6 subjects were treated (4 subjects received active drug and 2 placebo). Enrollment was staggered as 2 subjects (one active, one placebo) followed by 4 subjects (Groups A and B). The estimated single doses for the two highest doses treated for a […] subject were 40 mg (0.6 mg/kg cohort 6) and 70 mg (1 mg/kg cohort 7). In the multiple dose arm, cohort 6MD received 0.1 mg/kg on Day 0, 6 and 12; Cohort 7MD received 0.2 mg/kg on Day 0, 6 and 12. Levels of cidofovir, CMX001 and CMX064 (major metabolite) were measured in blood and urine of subjects during the course of the study. Gastrointestinal (GI) monitoring of the subjects included (a) monitoring for clinical signs of GI adverse events, (b) monitoring for clinical symptoms using a visual Analog Scale, (c) monitoring for appetite loss/anorexia, nausea, vomiting, diarrhea, constipation and intestinal gas/bloating, (d) laboratory tests for fecal occult blood; serum electrolytes, urine specific gravity, BUN/creatinine ratio; serum albumin, and lipids, and (e) diagnostic studies (the Wireless capsule endoscopy (PillCam®, Given Imaging)).

[4] = system: AdV 5; set-up: species or system Syrian Hamster; details: hamster, in vivo
[5] = system: HCMV (AD169); test: HCMV real time array of viral transcripts; type: cell-based; details: CDV 50 μM, GCV 15 μM, CMX001 0.5 μM; ANOVA P<0.05
[6] = system: CMV
[7] = cohort 6, 600 μg/kg, still blinded

Question: For `CCCCCCCCCCCCCCCCOCCCOP(=O)(O)CO[C@H](CO)Cn1ccc(N)nc1=O` [CMX001, Hexadecyloxypropyl-cidofovir], which “Enhanced Activity” value ([1]; CMX001 versus cidofovir EC50) is on record?
Answer: 271

Question: What about the EC50 ([1]; Vero 76) of the same compound?
Answer: 100 nM

Question: What about the EBV viral load ([2]; heart transplant recipient, 7 Mar. 2010 after first dose 20 mg (3 Mar. 2010: 267,338)) of the same compound?
Answer: 47,427 copies/mL

Question: And the “EBV in the plasma” value ([2]; patient, 4 mg/kg twice weekly)?
Answer: remains negative

Question: And the tolerability ([2]; patient, 4 mg/kg twice weekly)?
Answer: tolerated CMX001 well

Question: And the AUC ([3]; 0.05 mg/kg, CMX001 0.050 mg/kg)?
Answer: 36.3 ng·h/mL

Question: And the Cmax ([3]; 0.05 mg/kg, CMX001 0.050 mg/kg)?
Answer: 5.63 ng/mL

Question: And the AUC ([3]; 0.1 mg/kg, CMX001 0.100 mg/kg)?
Answer: 133 ng·h/mL

Question: And the Cmax ([3]; 0.1 mg/kg, CMX001 0.100 mg/kg)?
Answer: 10.6 ng/mL

Question: What about the AUC ([3]; 0.2 mg/kg, CMX001 0.200 mg/kg) of the same compound?
Answer: 225 ng·h/mL

Question: And the Cmax ([3]; 0.2 mg/kg, CMX001 0.200 mg/kg)?
Answer: 24.5 ng/mL

Question: And the AUC ([3]; 0.4 mg/kg, CMX001 0.400 mg/kg)?
Answer: 526 ng·h/mL

Question: And the Cmax ([3]; 0.4 mg/kg, CMX001 0.400 mg/kg)?
Answer: 68.1 ng/mL

Question: What about the AUC ([3]; 0.6 mg/kg, CMX001 0.600 mg/kg) of the same compound?
Answer: 729 ng·h/mL

Question: And the Cmax ([3]; 0.6 mg/kg, CMX001 0.600 mg/kg)?
Answer: 115 ng/mL

Question: And the AUC ([3]; CMX001 0.025 mg/kg)?
Answer: 18.5 ng·h/mL

Question: And the Cmax ([3]; CMX001 0.025 mg/kg)?
Answer: 2.36 ng/mL

Question: What about the adverse events [3, 7] of the same compound?
Answer: No serious adverse events (SAEs)

Question: What about the clinical laboratory values [3, 7] of the same compound?
Answer: No drug associated clinically significant changes to clinical laboratory values

Question: And the “reduction of infectious AdV5 titers in liver” value [4]?
Answer: 6 logs

Question: And the “levels of viral transcripts” value [5]?
Answer: Significant reductions in levels of most viral transcripts

Question: What about the “peak plasma concentration of CMX001” value ([6]; person with renal failure, following the first dose) of the same compound?
Answer: 264 ng/mL

Question: And the “Plasma CMV by PCR” value ([6]; person, Week 5, 120 mg)?
Answer: 3307

Question: And the “Plasma CMV by PCR” value ([6]; person, Week 10, 120 mg)?
Answer: 1541

Question: And the “CMV DNA” value ([6]; person, following 2 weeks of skipped doses)?
Answer: 5,037 copies/mL

Question: And the “CMV plasma DNA” value ([6]; person, following the first dose (180 mg))?
Answer: undetectable

Question: What about the “CMV DNA” value ([6]; person, following the start of treatment) of the same compound?
Answer: undetectable

Question: What about the “renal, liver, or hematologic function” value ([6]; person, more than 16 weeks) of the same compound?
Answer: No drug-related adverse changes in renal, liver, or hematologic function were observed
